Assay results taken from patent publication US9157077B2, “Aminopyrimidine kinase inhibitors” (Jasco Pharmaceuticals, LLC, priority 2009, dated 2015).
Read-outs that look alike come from different tables or passages of the source.

Tests used:
cell lines = assay: Selected cell proliferation inhibition data: cytotoxicity and IC50 determination (MTS/PMS, 72 hours), Tables 27 and 28; assay type: cell-based; details: Homo sapiens; for inhibition at 30 µM: 30 μM compound; for IC50: 72 hours, MTS
Description: Selected Cell Proliferation Inhibition Data
All cells were cultured in media supplemented with 10% FBS except for which are marked specially, in the temperature of 37° C., 5% CO2 and 95% humidity. All culture media were purchased from GIBCO (USA, IMDM Cat. 12200-036; RPMI Medium 1640 Cat. 31800-022; 2-mercaptoethanol Cat. 21985-023).
• CellTiter 96® AQueous MTS reagent powder (Cat. No.: G11 12, Promega. Store MTS Reagent Powder desiccated at 4° C. protected from light.) • Phenazine methosulfate (PMS) (Product No.: P9625, SIGMA. Store PMS Powder desiccated at 4° C. protected from light.) Preparation of PMS Solution:
The following protocol is recommended for the preparation of 21 mL of MTS solution (sufficient for ten 96-well plates). • a. Select a light-protected container or wrap a container with foil. • b. Add 21 mL of DPBS to the container. • c. Weigh out 42 mg of MTS Reagent Powder and add to DPBS. • d. Mix at moderate speed on a magnetic stir plate for 15 minutes or until the MTS is completely dissolved. • e. Measure the pH of the MTS solution. The optimum pH is between pH 6.0 to 6.5. If the solution is above pH 6.5, adjust to pH 6.5 with 1N HC1. • f. Filter-sterilize the MTS solution through a 0.2 μm filter into a sterile, light protected container. • g. Store the MTS solution at −20° C., protected from light. Preparation of the Mixture of MTS/PMS: • a. In order to prepare reagents sufficient for one 96-well plate containing cells cultured in a 100 μL volume, thaw the MTS solution and the PMS solution. It should take approximately 90 minutes at room temperature or 10 minutes in a 37° C. water bath to completely thaw the 20 mL size of MTS solution. […] Remove 2.0 mL of MTS solution from the amber reagent bottle using aseptic technique and transfer to a test tube. • c. Add 100 μL of PMS solution to the 2.0 mL of MTS solution immediately before addition to the culture plate containing cells. • d. Gently swirl the tube to ensure complete mixing of the combined MTS/PMS solution. Equipment:
• 1. The cells were harvested respectively during the logarithmic growth period and counted with hemocytometer. The cell viability was over 98% by trypan blue exclusion. • 2. Cell concentrations were adjusted to 2.22×10^5 or 1.11×10^5 or 5.56×10^4 cells/mL with respective medium. • 3. 90 μL cell suspensions were added to 96-well plates (triplicates for each cell concentration), the final cell densities were 2×10^4 or 1×10^4 or 5×10^3 cells/well. The density of 5×10^3 cells/well was used for the first test. The appropriate cell density was determined and adjusted according to the results of the first test. • 4. The next day, test article or positive drugs were dissolved with DMSO as stock solution at the concentration of 20 mM. • 5. 10 μL drug solution was dispensed in each well (triplicate for each drug concentration). • 6. Plates were cultured for another 72 hours, then measured by means of MTS assay. • 7. MTS/PMS solution was prepared immediately prior to use. 20 μL of the mixture was introduced into each well of the 96-well assay plate containing 100 μL culture medium. (The final reaction volume was 120 μL). • 8. Plate was incubated for 1-4 hours at 37° C. in a humidified 5% CO2 atmosphere. • 9. Absorbance at 490 nm was recorded using SpectraMAX Plus microplate spectrophotometer. Data Analysis:
The software of GraphPad Prism version 5 was used to calculate IC50. The graphical curves were fitted using a nonlinear regression model with a sigmoidal dose.

[1] = target: Enzyme (kinases of Table 30) (Homo sapiens, UniProt Q9P1W9); assay: IC50 of Compound (nM) (ATP present at Km of enzyme), Table 30; assay type: biochemical
[2] = target: Enzyme (kinases of Table 30) (Homo sapiens, UniProt P11309); assay: as above; assay type: biochemical
[3] = target: Enzyme (kinases of Table 30) (Homo sapiens, UniProt Q86V86); assay: as above; assay type: biochemical
[4] = target: T1, Enzyme (kinases of Table 30) (Homo sapiens, UniProt P68400); assay: as above; assay type: biochemical; details: CK2(h), ATP present at Km of enzyme
T1 construct: IC50 of Compound, CK2(h); other: CK2(h), ATP present at Km of enzyme

[5] = MV4-11 cell line, read-out: Percent inhibition at 30 μM of Compound, MV4-11
[6] = MV4-11 cell line, read-out: IC50 values, MV4-11
[7] = NCI-H929 cell line, read-out: Percent inhibition at 30 μM of Compound, NCI-H929
[8] = NCI-H929 cell line, read-out: IC50 values, NCI-H929
[9] = RPMI 8226 cell line, read-out: Percent inhibition at 30 μM of Compound, RPMI 8226
[10] = RPMI 8226 cell line, read-out: IC50 values, RPMI 8226
[11] = Pim-2(h), ATP present at Km of enzyme, read-out: IC50 of Compound, Pim-2(h)
[12] = Pim-1(h), ATP present at Km of enzyme, read-out: IC50 of Compound, Pim-1(h)
[13] = Pim-3(h), ATP present at Km of enzyme, read-out: IC50 of Compound, Pim-3(h)

Chain of Enzyme (kinases of Table 30) (Homo sapiens, UniProt Q9P1W9) (Q9P1W9 whole entry): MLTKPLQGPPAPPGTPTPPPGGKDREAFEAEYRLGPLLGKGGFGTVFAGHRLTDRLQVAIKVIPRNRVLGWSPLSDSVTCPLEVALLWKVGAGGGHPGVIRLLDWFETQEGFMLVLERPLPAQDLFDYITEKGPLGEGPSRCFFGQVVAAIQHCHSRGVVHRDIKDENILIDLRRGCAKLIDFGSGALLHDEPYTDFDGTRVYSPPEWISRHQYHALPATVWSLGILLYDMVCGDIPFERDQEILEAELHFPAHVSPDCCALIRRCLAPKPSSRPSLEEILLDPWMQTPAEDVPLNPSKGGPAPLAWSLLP
Chain of Enzyme (kinases of Table 30) (Homo sapiens, UniProt P11309) (P11309 whole entry): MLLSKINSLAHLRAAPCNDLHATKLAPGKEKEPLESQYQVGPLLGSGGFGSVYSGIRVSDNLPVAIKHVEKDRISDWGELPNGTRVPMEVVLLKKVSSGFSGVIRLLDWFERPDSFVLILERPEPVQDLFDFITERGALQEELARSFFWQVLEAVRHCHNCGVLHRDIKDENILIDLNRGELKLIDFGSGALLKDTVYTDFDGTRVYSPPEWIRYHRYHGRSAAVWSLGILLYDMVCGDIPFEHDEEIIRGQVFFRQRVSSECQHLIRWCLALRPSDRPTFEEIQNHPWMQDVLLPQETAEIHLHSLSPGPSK
T1 sequence (P68400 whole entry): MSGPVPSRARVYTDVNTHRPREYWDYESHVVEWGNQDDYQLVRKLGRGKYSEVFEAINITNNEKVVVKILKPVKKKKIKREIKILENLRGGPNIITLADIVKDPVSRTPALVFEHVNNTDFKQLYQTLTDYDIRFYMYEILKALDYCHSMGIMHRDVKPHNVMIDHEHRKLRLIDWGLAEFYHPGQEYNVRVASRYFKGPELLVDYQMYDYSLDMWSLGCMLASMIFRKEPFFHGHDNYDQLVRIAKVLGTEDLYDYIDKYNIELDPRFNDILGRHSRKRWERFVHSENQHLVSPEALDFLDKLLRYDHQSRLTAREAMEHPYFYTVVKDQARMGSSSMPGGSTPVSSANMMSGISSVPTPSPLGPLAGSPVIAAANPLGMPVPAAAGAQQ

SMILES	IC50 [1, 11] [nM]	IC50 [2, 12] [nM]	IC50 [3, 13] [nM]	inhibition at 30 µM (cell lines; [5]) [%]	IC50 (cell lines; [6]) [nM]	inhibition at 30 µM (cell lines; [7]) [%]	IC50 (cell lines; [8]) [nM]	inhibition at 30 µM (cell lines; [9]) [%]	IC50 (cell lines; [10]) [nM]	also measured
Cc1ccc(N2CCN(c3nccc(/C=C4\SC(=O)NC4=O)n3)CC2)cc1 [Example 9, (Z)-5-((2-(4-(p-tolyl)piperazin-1-yl)pyrimidin-4-yl)methylene)thiazolidine-2,4-dione]	–	–	–	91.1	6780	91.4	11500	71.2	16100	–
Nc1cccc2c1CCN(c1nccc(/C=C3\SC(=O)NC3=O)n1)C2 [Example 120, (Z)-5-((2-(5-amino-3,4-dihydroisoquinolin-2(1H)-yl)pyrimidin-4-yl)methylene)thiazolidine-2,4-dione]	–	–	–	95.1	4050	89.8	2810	76.4	1540	–
O=C1NC(=O)/C(=C/c2ccnc(NC3CNc4ccccc4C3)n2)S1 (stereo not drawn) [Example 140, (Z)-5-((2-((1,2,3,4-tetrahydroquinolin-3-yl)amino)pyrimidin-4-yl)methylene)thiazolidine-2,4-dione]	–	–	–	94.3	5510	96.7	8840	65.3	11200	–
O=C1NC(=O)/C(=C/c2ccnc(N3CCCC4NCCCC43)n2)S1 (stereo not drawn) [Example 155, (Z)-5-((2-(octahydro-1,5-naphthyridin-1(2H)-yl)pyrimidin-4-yl)methylene)thiazolidine-2,4-dione]	–	–	–	97.6	12500	73.7	3960	53.9	–	–
O=C1NC(=O)/C(=C/c2ccnc(N3CCC(CNCc4ccc5ccccc5n4)CC3)n2)S1 [Example 180, (Z)-5-((2-(4-(((quinolin-2-ylmethyl)amino)methyl)piperidin-1-yl)pyrimidin-4-yl)methylene)thiazolidine-2,4-dione]	–	–	–	90.7	11000	100	10900	79.7	9140	–
Cc1cc(CNCC2CCN(c3nccc(/C=C4\SC(=O)NC4=O)n3)CC2)c2ccccc2n1 [Example 181, (Z)-5-((2-(4-((((2-methylquinolin-4-yl)methyl)amino)methyl)piperidin-1-yl)pyrimidin-4-yl)methylene)thiazolidine-2,4-dione]	–	–	–	96.6	1200	93.5	4420	82.2	3410	–
O=C1NC(=O)/C(=C/c2ccnc(N3CCC(CNCc4nccc5ccccc45)CC3)n2)S1 [Example 182, (Z)-5-((2-(4-(((isoquinolin-1-ylmethyl)amino)methyl)piperidin-1-yl)pyrimidin-4-yl)methylene)thiazolidine-2,4-dione]	–	–	–	91.1	2020	96.5	7080	90.2	11900	–
COc1cccc(CNCC2CCN(c3nccc(/C=C4\SC(=O)NC4=O)n3)CC2)n1 [Example 183, (Z)-5-((2-(4-((((6-methoxypyridin-2-yl)methyl)amino)methyl)piperidin-1-yl)pyrimidin-4-yl)methylene)thiazolidine-2,4-dione]	–	–	–	94.4	–	98.6	4600	82.3	9600	–
COc1cccc2ccc(CNCC3CCN(c4nccc(/C=C5\SC(=O)NC5=O)n4)CC3)nc12 [Example 189, (Z)-5-((2-(4-((((8-methoxyquinolin-2-yl)methyl)amino)methyl)piperidin-1-yl)pyrimidin-4-yl)methylene)thiazolidine-2,4-dione]	–	–	–	97.9	4710	98.5	3040	99.9	8320	–
O=C1NC(=O)/C(=C/c2ccnc(N3CCC(CNCc4ccc5cc(F)ccc5n4)CC3)n2)S1 [Example 191, (Z)-5-((2-(4-((((6-fluoroquinolin-2-yl)methyl)amino)methyl)piperidin-1-yl)pyrimidin-4-yl)methylene)thiazolidine-2,4-dione]	–	–	–	87.4	2400	94	3260	93.1	6860	–
CCCCN(C)c1nccc(/C=C2\SC(=O)NC2=O)n1 [compound 87]	80	295	263	–	–	–	–	–	–	IC50 [4]: 261 nM
Nc1ccc2c(c1)CN(c1nccc(/C=C3\SC(=O)NC3=O)n1)CC2 [compound 90]	89	97	419	–	–	–	–	–	–	IC50 [4]: 291 nM
CC1CC(C)CN(c2nccc(/C=C3\SC(=O)NC3=O)n2)C1 (stereo not drawn) [compound 99]	18	137	199	–	–	–	–	–	–	–
CC1CCCN(c2nccc(/C=C3\SC(=O)NC3=O)n2)C1 (stereo not drawn) [compound 117]	50	164	436	–	–	–	–	–	–	–
O=C1NC(=O)/C(=C/c2ccnc(N3CCCC4NCCCC43)n2)S1 (stereo not drawn) [compound 155]	–	–	–	–	–	–	–	–	–	IC50 [1]: 14 nM; IC50 [2]: 19 nM; IC50 [3]: 9 nM

Continued, in another order:

IC50 [1, 11] [nM]	IC50 [2, 12] [nM]	IC50 [3, 13] [nM]	SMILES	inhibition at 30 µM (cell lines; [5]) [%]	IC50 (cell lines; [6]) [nM]	inhibition at 30 µM (cell lines; [7]) [%]	IC50 (cell lines; [8]) [nM]	inhibition at 30 µM (cell lines; [9]) [%]	IC50 (cell lines; [10]) [nM]	also measured
104	> 1000	231	NCc1cccc(CNc2nccc(/C=C3\SC(=O)NC3=O)n2)c1 [compound 159]	–	–	–	–	–	–	–
142	157	46	O=C1NC(=O)/C(=C/c2ccnc(N3CCC(CNCc4ccccn4)CC3)n2)S1 [compound 172]	–	–	–	–	–	–	–
75	58	16	Cc1cccc(CNCC2CCN(c3nccc(/C=C4\SC(=O)NC4=O)n3)CC2)n1 [compound 174]	–	–	–	–	–	–	–
15	13	15	O=C1NC(=O)/C(=C/c2ccnc(N3CCC(CNCc4ccc5ccccc5n4)CC3)n2)S1 [compound 180]	–	–	–	–	–	–	–
44	79	34	Cc1cc(CNCC2CCN(c3nccc(/C=C4\SC(=O)NC4=O)n3)CC2)c2ccccc2n1 [compound 181]	–	–	–	–	–	–	–
23	6	5	O=C1NC(=O)/C(=C/c2ccnc(N3CCC(CNCc4ccc5cc(F)ccc5n4)CC3)n2)S1 [compound 191]	–	–	–	–	–	–	–
217	99	109	O=C1NC(=O)/C(=C/c2ccnc(N3CCC(CNCc4cccc(-c5ccc(F)cc5)n4)CC3)n2)S1 [compound 204]	–	–	–	–	–	–	–
199	54	38	O=C1NC(=O)/C(=C/c2ccnc(N3CCC(CNCc4cccc(-c5cccs5)n4)CC3)n2)S1 [compound 205]	–	–	–	–	–	–	–
